Measurements as given in patent US10800816B2 (Baxalta GmbH, priority 2012, dated 2020).
“Also recorded” adds a separate entry of the source. Where a SMILES comes first, the peptide text is derived from it. Bridges are numbered along the chain shown (N, C = ends). [ ]: non-standard residue; d: D form. Sar = CNCC(=O)O

Tests used:
TFPI [1] = test: % Inhibition @ 2.5µM
TFPI [2] = test: FXa Inhibition assay | EC50 (µM)
TFPI [3] = test: % Inhibition @ 0.63µM
TFPI [4] = test: Extrinsic Tenase Inhibition assay | % Inhibition @ 2.5μM
[5] = system: Tissue Factor Pathway Inhibitor (TFPI); test: IC50 ELISA | Mean IC50 [nM]
Text: Table printed on a drawing sheet, FIGURE 78V
Head of the field: IC50 ELISA | Mean IC50 [nM]

[6] = system: Tissue Factor Pathway Inhibitor (TFPI); test: IC50 ELISA | IC50 [nM]
Text: Table printed on a drawing sheet, FIGURE 78G
Head of the field: IC50 ELISA | IC50 [nM]

in vitro = settings: human, plasma
[7] = mouse, 24 h
[8] = system: FVIII-inhibited whole blood; test: Rotation thromboelastography (ROTEM) in whole blood; set-up: species or system human; settings: Hem A / FVIII-inhibited human whole blood
Experimental: Continuous visco-elastic assessment of human whole blood clot formation and firmness was performed by rotation thromboelastography with whole blood preparations in the presence or absence of peptides. […] Test samples were prepared by dissolving quantities of peptides in either DMSO or HEPES buffered saline (with or without 0.1% Tween 80).
Recordings were made using a ROTEM thromboelastography coagulation analyzer (Pentapharm, Munich, Germany) at 37° C. Briefly, blood is added into a disposable cuvette in a heated cuvette holder. A disposable pin (sensor) is fixed on the tip of a rotating axis. The axis is guided by a high precision ball bearing system and rotates back and forth. The axis is connected with a spring for the measurement of elasticity. The exact position of the axis is detected by the reflection of light on a small mirror on the axis. The loss of elasticity when the sample clots leads to a change in the rotation of the axis. The data obtained are computer analyzed and visualized in a thromboelastogram. […] An elasticity of approximately zero is observed before clot formation begins. Mirror image traces above and below the zero line indicate the effect of clot formation on the rotation of the axis.
The analytical set-up was as follows: to 20 μL of test sample or control, 300 μL of pre-warmed (37° C.) CTI treated citrated whole blood was added, followed by 20 μL of a 1:15 dilution of TF PRP reagent containing recombinant human tissue factor (rTF, 3 pM) (TS40, Thrombinoscope BV, Maastricht, The Netherlands). Coagulation was initiated by the addition of 20 μ200 mM CaCl2 (star-TEM®, Pentapharm, Munich, Germany) and recordings were allowed to proceed for at least 120 min. The final concentration of rTF in the assay was 11 or 44 fM.
The thromboelastographic parameters of clotting time (CT), clot formation time (CFT) and maximum clot firmness (MCF) were recorded in accordance with the manufacturer's instructions. CT is defined as the time from the start of measurement to the start of clot formation. CFT is defined as the time from the start of clot formation until an amplitude of 20 mm is reached. MCF is the maximum difference in amplitude between the two traces during the assay. The first derivative of the data of the thromboelastogram are plotted to obtain a graph of velocity (mm/s) against time (s). From this graph, the maximum velocity (maxV) is determined. The time at which the maximum velocity is obtained (maxV-t) is also determined.
This example describes a method for assessing clot formation in whole blood using rotation thromboelastography (ROTEM). The assay was performed as described in Example 8. The analytical set-up was as follows: 300 μL of pre-warmed (37° C.) CTI treated citrated whole blood was added to a peptide sample (10, 100, 1000 nM final assay concentration) or a control, followed by addition of a 1:15 dilution of TF PRP reagent containing recombinant human tissue factor (rTF, 3 pM) (TS40, Thrombinoscope BV, Maastricht, The Netherlands). In certain experiments, exogenous full length TFPI (flTFPI) at final concentrations of 2 or 10 nM was added to simulate flTFPI plasma levels of up to 50-fold over normal. Coagulation was initiated by the addition of 20 μL 200 mM CaCl2 (star-TEM®, Pentapharm, Munich, Germany) and recordings were allowed to proceed for at least 120 min. The final concentration of rTF in the assay was 44 fM. The thromboelastographic parameters of clotting time (CT), clot formation time (CFT) and maximum clot firmness (MCF) were recorded in accordance with the manufacturer's instructions. CT is defined as the time from the start of measurement to the start of clot formation. CFT is defined as the time from the start of clot formation until an amplitude of 20 mm is reached. MCF is the maximum difference in amplitude between the two traces during the assay.

Ac-FQSKaNVFVFGYFERLRAKL-NH2 (SEQ ID NO: 53) (Ac-FQSK[dA]NVFVFGYFERLRAKL-NH2; SMILES CC(=O)N[C@@H](Cc1ccccc1)C(=O)N[C@@H](CCC(N)=O)C(=O)N[C@@H](CO)C(=O)N[C@@H](CCCCN)C(=O)N[C@H](C)C(=O)N[C@@H](CC(N)=O)C(=O)N[C@H](C(=O)N[C@@H](Cc1ccccc1)C(=O)N[C@H](C(=O)N[C@@H](Cc1ccccc1)C(=O)NCC(=O)N[C@@H](Cc1ccc(O)cc1)C(=O)N[C@@H](Cc1ccccc1)C(=O)N[C@@H](CCC(=O)O)C(=O)N[C@@H](CCCNC(=N)N)C(=O)N[C@@H](CC(C)C)C(=O)N[C@@H](CCCNC(=N)N)C(=O)N[C@@H](C)C(=O)N[C@@H](CCCCN)C(=O)N[C@@H](CC(C)C)C(N)=O)C(C)C)C(C)C) [JBT0663]
% Inhibition @ […] (TFPI [1]): 81%
EC50 (TFPI [2]): 290 nM
% Inhibition @ […] (TFPI [3]): 60%

CC(=O)N[C@@H](Cc1ccccc1)C(=O)N[C@@H](CCC(N)=O)C(=O)N[C@@H](CO)C(=O)N[C@@H](CCCCN)C(=O)N(C)CC(=O)N[C@@H](CC(N)=O)C(=O)N[C@H](C(=O)N[C@@H](Cc1ccccc1)C(=O)N[C@H](C(=O)N[C@@H](CC(=O)O)C(=O)NCC(=O)N[C@@H](Cc1ccc(O)cc1)C(=O)N[C@@H](Cc1ccccc1)C(=O)N[C@@H](CCC(=O)O)C(=O)N[C@@H](CCCNC(=N)N)C(=O)N[C@@H](CC(C)C)C(=O)NC(C)(C)C(=O)N[C@@H](C)C(=O)N[C@@H](CCCCN)C(=O)N[C@@H](CC(C)C)C(N)=O)C(C)C)C(C)C [JBT1584]
Plasma Stability (half life in minutes) human: >2 h

Ac-SRYKWFGM[CRDMKGTMSC]VWVKF-NH2 (SEQ ID NO: 1233) (Ac-SRYKWFGMCRDMKGTMSCVWVKF-NH2; disulfide 9-18; SMILES CSCC[C@H](NC(=O)CNC(=O)[C@H](Cc1ccccc1)NC(=O)[C@H](Cc1c[nH]c2ccccc12)NC(=O)[C@H](CCCCN)NC(=O)[C@H](Cc1ccc(O)cc1)NC(=O)[C@H](CCCNC(=N)N)NC(=O)[C@H](CO)NC(C)=O)C(=O)N[C@H]1CSSC[C@@H](C(=O)N[C@H](C(=O)N[C@@H](Cc2c[nH]c3ccccc23)C(=O)N[C@H](C(=O)N[C@@H](CCCCN)C(=O)N[C@@H](Cc2ccccc2)C(N)=O)C(C)C)C(C)C)NC(=O)[C@H](CO)NC(=O)[C@H](CCSC)NC(=O)[C@H]([C@@H](C)O)NC(=O)CNC(=O)[C@H](CCCCN)NC(=O)[C@H](CCSC)NC(=O)[C@H](CC(=O)O)NC(=O)[C@H](CCCNC(=N)N)NC1=O) [JBT0462]
Extrinsic Tenase Inhibition assay | % Inhibition @ […] (TFPI [4]): 0%

Ac-FQSKpNVH-Tle-D-hcy-YFCRL-Aib-AKL-NH2 [JBT00002498]
IC50 [5]: 7.59 nM

Ac-FQSKp-Nmn-VHVDGYFERL-Aib-AKL-NH2 [JBT00002287]
IC50 [6]: > 500 nM

Ac-FQSKpN-Chg-H-Chg-DGYFERL-Aib-AKL-NH2 [JBT00002295]
IC50 [6]: > 5000 nM

CC(=O)N[C@@H](Cc1ccccc1)C(=O)N[C@@H](CCC(N)=O)C(=O)N[C@@H](CO)C(=O)N[C@@H](CCCCN)C(=O)N(C)CC(=O)N[C@@H](CC(N)=O)C(=O)N[C@H](C(=O)N[C@@H](Cc1ccccc1)C(=O)N[C@H](C(=O)N[C@@H](CC(=O)O)C(=O)NCC(=O)N[C@@H](Cc1ccc(O)cc1)C(=O)N[C@@H](Cc1ccccc1)C(=O)N[C@@H](CCC(=O)O)C(=O)N[C@@H](CCCNC(=N)N)C(=O)N[C@@H](CC(C)C)C(=O)N[C@@H](CCCNC(=N)N)C(=O)N[C@@H](C)C(=O)N[C@@H](CCCCN)C(=O)N[C@@H](CC(C)C)C(N)=O)C(C)C)C(C)C [JBT0717] (Ac-FQSK[Sar]NVFVDGYFERLRAKL-NH2)
Plasma Stability (half life in minutes) human: >2 h

Ac-SRYKWFCGMRDMKGTMSAVWVKF-NH2 (SEQ ID NO: 1160) [JBT0454]
Extrinsic Tenase Inhibition assay | % Inhibition @ […] (TFPI [4]): 0%

Ac-FQSKaNVFVTGYFARLRAKL-NH2 (SEQ ID NO: 54) (Ac-FQSK[dA]NVFVTGYFARLRAKL-NH2; SMILES CC(=O)N[C@@H](Cc1ccccc1)C(=O)N[C@@H](CCC(N)=O)C(=O)N[C@@H](CO)C(=O)N[C@@H](CCCCN)C(=O)N[C@H](C)C(=O)N[C@@H](CC(N)=O)C(=O)N[C@H](C(=O)N[C@@H](Cc1ccccc1)C(=O)N[C@H](C(=O)N[C@H](C(=O)NCC(=O)N[C@@H](Cc1ccc(O)cc1)C(=O)N[C@@H](Cc1ccccc1)C(=O)N[C@@H](C)C(=O)N[C@@H](CCCNC(=N)N)C(=O)N[C@@H](CC(C)C)C(=O)N[C@@H](CCCNC(=N)N)C(=O)N[C@@H](C)C(=O)N[C@@H](CCCCN)C(=O)N[C@@H](CC(C)C)C(N)=O)[C@@H](C)O)C(C)C)C(C)C) [JBT0668]
% Inhibition @ […] (TFPI [1]): 70%
EC50 (TFPI [2]): 520 nM
% Inhibition @ […] (TFPI [3]): 43%

Ac-FQSKKAVFVFGYFERLRAKL-NH2 (SEQ ID NO: 288) [JBT0696]
% Inhibition @ […] (TFPI [1]): 48%
EC50 (TFPI [2]): 710 nM
% Inhibition @ […] (TFPI [3]): 26%

CC(=O)N[C@@H](Cc1ccccc1)C(=O)N[C@@H](CCC(N)=O)C(=O)N[C@@H](CO)C(=O)N[C@@H](CCCCN)C(=O)N1CCC[C@@H]1C(=O)N[C@@H](CC(N)=O)C(=O)N[C@H](C(=O)N[C@@H](Cc1cnc[nH]1)C(=O)N[C@H](C(=O)N[C@@H](CC(=O)O)C(=O)NCC(=O)N[C@@H](Cc1ccc(O)cc1)C(=O)N[C@@H](Cc1ccccc1)C(=O)N[C@@H](CCC(=O)O)C(=O)N[C@@H](CCCNC(=N)N)C(=O)N[C@@H](CC(C)C)C(=O)NC(C)(C)C(=O)N[C@@H](C)C(=O)N[C@@H](CCCCN)C(=O)N[C@@H](CC(C)C)C(N)=O)C(C)C)C(C)C [JBT1857]
remaining at 24 h (in vitro): 27%
percentage of original amount of peptide remaining (human, plasma, 24 h): 27%
percentage of initial amount of peptide remaining in plasma [7]: < 10%
percentage of initial amount of peptide remaining ([7]; plasma): Less than 5%
coagulation parameters [8]: restored coagulation parameters in Hem A blood; also recorded: positively impacted blood coagulation parameters, but performed less efficiently than JBT1837

Ac-FQSKpNVH-Tle-D-hcy-YF-Hcy-RL-Aib-AKL-NH2 [JBT00002497]
IC50 [5]: 7.16 nM

Ac-SRYKWF[CGMADMKGTMSC]VWVKF-NH2 (SEQ ID NO: 1079) (Ac-SRYKWFCGMADMKGTMSCVWVKF-NH2; disulfide 7-18; SMILES CSCC[C@@H]1NC(=O)CNC(=O)[C@@H](NC(=O)[C@H](Cc2ccccc2)NC(=O)[C@H](Cc2c[nH]c3ccccc23)NC(=O)[C@H](CCCCN)NC(=O)[C@H](Cc2ccc(O)cc2)NC(=O)[C@H](CCCNC(=N)N)NC(=O)[C@H](CO)NC(C)=O)CSSC[C@@H](C(=O)N[C@H](C(=O)N[C@@H](Cc2c[nH]c3ccccc23)C(=O)N[C@H](C(=O)N[C@@H](CCCCN)C(=O)N[C@@H](Cc2ccccc2)C(N)=O)C(C)C)C(C)C)NC(=O)[C@H](CO)NC(=O)[C@H](CCSC)NC(=O)[C@H]([C@@H](C)O)NC(=O)CNC(=O)[C@H](CCCCN)NC(=O)[C@H](CCSC)NC(=O)[C@H](CC(=O)O)NC(=O)[C@H](C)NC1=O) [JBT0446]
Extrinsic Tenase Inhibition assay | % Inhibition @ […] (TFPI [4]): 46%

Ac-FQSKpN-Phg-H-Phg-DGYFERL-Aib-AKL-NH2 [JBT00002298]
IC50 [6]: > 5000 nM
